{"source": "paper PMC10030390", "about": "“A phase 1 open-label study to assess the relative bioavailability of TAK-931 tablets in reference to powder-in-capsule in patients with advanced solid tumors” (Investigational New Drugs, 2022)", "key": {"[1]": {"tested_on": "locally advanced or metastatic solid tumors", "experiment": "Antitumor activity, investigator-assessed disease response (RECIST v1.1)", "format": "in vivo, human", "method": "The primary endpoints were the ratio of geometric means of the following PK parameters for TAK-931 tablets in reference to PIC and associated 2-sided 90% confidence intervals (CIs): maximum observed plasma concentration (Cmax), area under the plasma concentration–time curve (AUC) from time 0 to time of the last quantifiable concentration (AUClast), and the AUC from time 0 to infinity (AUCinf). Secondary endpoints were PK parameters of TAK-931 80 mg following a single-dose administration as PIC or tablet (time of first occurrence of maximum observed plasma concentration [Tmax], and terminal disposition phase half-life [T1/2z]), antitumor activity, and safety."}, "solid tumors": {"tested_on": "solid tumors", "design": "method as in earlier work", "conditions": "of 24 response-evaluable patients, first-in-human phase 1 study; cited from earlier work"}, "[2]": {"design": "method as in NCT02699749", "conditions": "estimated from preliminary data, ref NCT02699749; cited from earlier work"}}, "note": "Values joined by “and” are separate entries in the source; they are usually repeats but may differ in a detail not shown here. Identical values can stand only once. Like-named read-outs stand apart in the source and are kept apart here."}
{"smiles": "Cc1[nH]ncc1-c1cc2nc([C@@H]3CC4CCN3CC4)[nH]c(=O)c2s1", "note": "[TAK-931]", "values": [{"measurement": "partial or complete responses", "setting": "[1]; 19 patients evaluable for response", "result": "No partial or complete responses"}, {"measurement": "Median time to PD or death", "setting": "[1]; 95% CI: 1.6–2.8", "result": 1.9, "unit": "months"}, {"measurement": "individual progression-free survival durations of patients with SD", "setting": "[1]; four patients with best response SD, + = censored observation", "result": "3.58 months and ≥ 2.23 months and 3.55 months and 4.01 months"}, {"measurement": "On-study deaths", "setting": "PIC/Tablet sequence, n = 12", "result": "0 n (%)"}, {"measurement": "On-study deaths", "setting": "Tablet/PIC sequence, n = 8", "result": "1 (13) n (%)"}, {"measurement": "Dose modification: Dose increased", "setting": "human, in vivo", "result": "0 n (%)"}, {"measurement": "Serious TEAEs: Not related", "setting": "human, in vivo", "result": "2 (25) n (%) and 2 (17) n (%) and 4 (20) n (%)"}, {"measurement": "TEAE Alopecia, Any-grade", "setting": "human, in vivo", "result": "6 (30) n (%)"}, {"measurement": "TEAE Constipation, Any-grade", "setting": "human, in vivo", "result": "8 (40) n (%)"}, {"measurement": "TEAE Decreased appetite, Any-grade", "setting": "human, in vivo", "result": "4 (20) n (%)"}, {"measurement": "TEAE Disturbance in attention, Any-grade", "setting": "human, in vivo", "result": "2 (10) n (%)"}, {"measurement": "TEAE Dyspnea, Any-grade", "setting": "human, in vivo", "result": "3 (15) n (%)"}, {"measurement": "TEAE Dyspnea, Grade ≥ 3", "setting": "human, in vivo", "result": "1 (5) n (%)"}, {"measurement": "TEAE Fatigue, Any-grade", "setting": "human, in vivo", "result": "13 (65) n (%)"}, {"measurement": "TEAE Fatigue, Grade ≥ 3", "setting": "human, in vivo", "result": "1 (5) n (%)"}, {"measurement": "TEAE Headache, Any-grade", "setting": "human, in vivo", "result": "3 (15) n (%)"}, {"measurement": "TEAE Hypertension, Any-grade", "setting": "human, in vivo", "result": "3 (15) n (%)"}, {"measurement": "TEAE Hypertension, Grade ≥ 3", "setting": "human, in vivo", "result": "1 (5) n (%)"}, {"measurement": "TEAE Hypokalemia, Any-grade", "setting": "human, in vivo", "result": "1 (5) n (%)"}, {"measurement": "TEAE Hypokalemia, Grade ≥ 3", "setting": "human, in vivo", "result": "1 (5) n (%)"}, {"measurement": "TEAE Ileus, Any-grade", "setting": "human, in vivo", "result": "2 (10) n (%)"}, {"measurement": "TEAE Ileus, Grade ≥ 3", "setting": "human, in vivo", "result": "2 (10) n (%)"}, {"measurement": "TEAE Nausea, Any-grade", "setting": "human, in vivo", "result": "8 (40) n (%)"}, {"measurement": "TEAE Neutropenia, Any-grade", "setting": "human, in vivo", "result": "2 (10) n (%)"}, {"measurement": "TEAE Neutropenia, Grade ≥ 3", "setting": "human, in vivo", "result": "2 (10) n (%)"}, {"measurement": "TEAE Pneumonia, Any-grade", "setting": "human, in vivo", "result": "1 (5) n (%)"}, {"measurement": "TEAE Pneumonia, Grade ≥ 3", "setting": "human, in vivo", "result": "1 (5) n (%)"}, {"measurement": "TEAE Rectal cancer, Any-grade", "setting": "human, in vivo", "result": "1 (5) n (%)"}, {"measurement": "TEAE Rectal cancer, Grade ≥ 3", "setting": "human, in vivo", "result": "1 (5) n (%)"}, {"measurement": "TEAE Vomiting, Any-grade", "setting": "human, in vivo", "result": "6 (30) n (%)"}, {"measurement": "TEAE Weight decrease, Any-grade", "setting": "human, in vivo", "result": "3 (15) n (%)"}, {"measurement": "patients with TEAE alopecia", "setting": "human, in vivo", "result": 30, "unit": "%"}, {"measurement": "patients with TEAE constipation", "setting": "human, in vivo", "result": 40, "unit": "%"}, {"measurement": "patients with TEAE fatigue", "setting": "human, in vivo", "result": 65, "unit": "%"}, {"measurement": "patients with TEAE nausea", "setting": "human, in vivo", "result": 40, "unit": "%"}, {"measurement": "patients with TEAE vomiting", "setting": "human, in vivo", "result": 30, "unit": "%"}, {"measurement": "patients with grade ≥ 3 TEAE ileus", "setting": "human, in vivo", "result": 10, "unit": "%"}, {"measurement": "patients with grade ≥ 3 TEAE neutropenia", "setting": "human, in vivo", "result": 10, "unit": "%"}, {"measurement": "patients with treatment-related TEAE alopecia", "setting": "human, in vivo", "result": 30, "unit": "%"}, {"measurement": "patients with treatment-related TEAE decreased appetite", "setting": "human, in vivo", "result": 20, "unit": "%"}, {"measurement": "patients with treatment-related TEAE fatigue", "setting": "human, in vivo", "result": 50, "unit": "%"}, {"measurement": "patients with treatment-related TEAE nausea", "setting": "human, in vivo", "result": 30, "unit": "%"}, {"measurement": "patients with treatment-related TEAE vomiting", "setting": "human, in vivo", "result": 20, "unit": "%"}, {"measurement": "patients with a partial response", "setting": "solid tumors", "result": 3}, {"measurement": "patients with prolonged SD", "setting": "solid tumors", "result": 4}, {"measurement": "within-patient coefficient of variation for AUC", "setting": "[2]", "result": 35.0, "unit": "%"}, {"measurement": "within-patient coefficient of variation for Cmax", "setting": "[2]", "result": 36.9, "unit": "%"}]}
